Consider eight compounds from US12070457B2, “Substituted pyridines, pyridazines, pyrimidines, and 1,2,3-triazines as bruton's tyrosine kinase inhibitors” (HUTCHISON MEDIPHARMA LIMITED, priority 2020, dated 2024).

In data set [1] the target is phosphorylated BTK in Ramos cells (Homo sapiens (Human), UniProt Q06187). Nature of the data set: Determination of phosphorylated BTK in Ramos cells (BTK phospho-Y223 HTRF). In kind it is cell-based. Here is the method:
Determination of Phosphorylated BTK in Ramos Cells
(§1) 1. Reagents and Materials
• Ramos cells: Ramos cells were purchased from American Standard Biological Collection Center ATCC Cell Bank, PRMI 1640 medium containing L-glutamine, 1.5 g/L of sodium bicarbonate, 2.383 g/L of HEPES solution, 0.11 g/L of sodium pyruvate and 4.5 g/L of glucose was used, added 10% fetal bovine serum FBS, and placed in a 5% C02, 37° C. cell incubator for normal culture; • PRMI 1640 medium: GIBCO, Cat #A10491-01; • Fetal bovine serum (FBS): GIBCO, Cat #100100-147; • Hank's balanced salt solution (HBSS): GIBCO, Cat #14025-092; • Immunoglobulin M (IgM): Jackson Immuno, Cat #109-006-129; • 3% hydrogen peroxide (3% H2O2): Sigma, Cat #88597-100 ML-F; • Phosphorylated BTK HTRF detection kit (BTK phospho-Y223 HTRF kit): Cisbio, Cat #63ADK017PEH; • Microwell plate reader: Envision, Perkin Elmer; • 384-well plate CulturPlate™384: Perkin Elmer, Cat #6007680 • 96-well plate: Corning, Cat #3799. 2. Methods
Ramos cells were starved in PRMI 1640 medium with 1% FBS for 2 hours. The starved Ramos cells were diluted with Hank's balanced salt solution to 5.0×10^6 cells/ml, seeded in a 96-well plate with 20 μL/well (1.0×10^5 cells/well), and cultured in a 5% CO2, 37° C. cell incubator. […]
The 384 well plate incubated overnight in the constant temperature incubator was taken out to detect the luminescence signal using the Envision microwell plate reader at the […]. The reading value at 665 nm/615 nm of each well multiplied by 104 was used as the signal value of each well.
The average signal value of the wells supplemented with the mixed solution of human immunoglobulin M (final concentration was 10 μg/mL) and hydrogen peroxide (final concentration was 3.3 mM) without the test compound was regarded as the high value, and the average signal value of the wells without immunoglobulin M stimulation and without the test compound was regarded as the low value. According to the signal value in each well, the inhibition ratio (%) of each concentration of compounds was calculated, and the 205 model in XL-Fit 5.3 software (ID Business Solutions Limited) was used to obtain an IC50 value. […]
A general note: Time-resolved FRET reads energy transfer from a long-lived donor to a nearby acceptor.

Another data set concerns the target BTK recombinant protein (Homo sapiens (Human), UniProt Q06187). Nature of the data set: Determination of biochemical BTK (Z'-LYTE kinase assay).
Source text: Example 2 Determination of Biochemical BTK
as §1
• BTK recombinant protein: Invitrogen, Cat #PV3363; • Z′-LYTE® kinase test kit-tyrosine 1 peptide: Invitrogen, Cat #PV3190; • 384-well low-flange black flat-bottomed polystyrene NBS microplate, no lid, no sterilization: Corning, Cat #3575; • 96-well polystyrene conical-bottomed MicroWell™ plate, sealed with a lid: Thermo Scientific™ Nunc™, Cat #277143; • Envision multi-mode plate reader: PerkinElmer; • Mixmate® shaker: Eppendorf; • TS-2102 shaking incubator: TENSUC; 2. Methods
Z′-LYTE® biochemical assay employs a fluorescence resonance energy transfer (FRET)-based, coupled-enzyme format and is based on the differential sensitivity of phosphorylated and non-phosphorylated peptides to proteolytic cleavage. Both ends of the short peptide substrate are labeled with two fluorescent groups to form a FRET paired combination. In the primary reaction (the Kinase Reaction), the kinase transfers the γ-phosphate of ATP to a single […] residue on the short peptide substrate. In the secondary reaction (the development reaction), the non-phosphorylated short peptides were recognized and cleaved by a site-specific protease (the development reagent). Phosphorylated short peptides can resist such cleavage. Cleavage of short peptides can disrupt the donor (such as coumarin) and receptor fluorophores (fluorescein) on the short peptides, while the phosphorylated short peptides can maintain FRET. The calculation method of the ratio is as follows, and the ratio of the respective emission signals generated by the donor fluorophores emitted (after excitation at 400 nm) to the receptors is calculated. Emission signal ratio=emitted light by coumarin (445 nm)/emitted light by fluorescein (520 nm). If the FRET short peptide is phosphorylated (such as no kinase inhibitor), the emitted light ratio will remain in a lower level. If the FRET short peptide is non-phosphorylated (such as kinase inhibitor), the emitted light ratio will be in a higher level. In this way, the inhibitory effects of different compound inhibitors on BTK kinase activity would be distinguished.
The experiment were carried out according to the instructions of the Z′-LYTE® kinase test kit-tyrosine 1 peptide. Reagent preparation: 1.33× kinase buffer: 5× kinase buffer was diluted with water to 1.33× kinase buffer; an enzyme solution: the kinase was dissolved in 1.33× kinase buffer with the final working concentration being 3.32 nM; a short peptide solution: a short peptide stock solution (1 mM dissolved in DMSO) was dissolved in 1.33× kinase buffer with the final working concentration being 2 μM; Z′-LYTE Tyr01 phosphorylated short peptide solution, 0.6 μl of stock solution (1 mM dissolved in DMSO) was dissolved in 149.4 μl of 1.33× kinase buffer; an ATP solution: an ATP stock solution (10 mM aqueous solution) was dissolved in 1.33× kinase buffer with the final working concentration being 32 μM; a color-developing solution: color-developing solution B was dissolved in color-developing buffer with the final working concentration being 1× color-developing solution; 4× compound preparation: the compound was diluted in 3-fold gradient concentration to finally obtain 4% DMSO aqueous solution containing different concentrations of the compound, with the final working concentration being 3000, 1000, 333.33, 111.11, 37.04, 12.35, 4.12, 1.37 nM, 8 concentration points in total.
Specific steps of the experiment: In the experiment, there were three control groups, each with 8 replicate wells, which were C1 100% inhibition group (no ATP), C2 0% inhibition group (with ATP), and C3 100% phosphorylation group, respectively. 2.5 μl of serially diluted compound was added to each well of a 384-well plate, with double replicate wells, and 4% DMSO solution was added to wells C1, C2, and C3. […]

Data set [2] is described as follows: Stability test in liver microsomes (rat). The format is in vitro ADME. As to conditions: 1 μM compound; for stability in rat liver microsomes compared with reference GDC-0853: 0.5 mg/mL liver microsomes, 30 minutes incubation; for RLM, percentage of remaining compound after 30 minutes of incubation: rat liver microsomes. The text has this:
(§2) Example 5 Stability Test in Liver Microsomes
(§3) Both male CD-1 mouse pooled liver microsomes and male SD rat pooled liver microsomes were purchased from BioreclamationIVT Corporation, USA.
(§4) Phenacetin, glucose-6-phosphate dehydrogenase (G-6-PDH) and nicotinamide adenine dinucleotide phosphate (NADP) were all purchased from Sigma-Aldrich Corporation, USA. Glucose-6-phosphate (G-6-P) was purchased from Shanghai Eybridge Chemical Technology Co., Ltd.
(§5) Ten mM test compound stock solution: a certain amount of test compound was weighed, and dissolved with an appropriate volume of DMSO to prepare a stock solution with a concentration of 10 mM for use.
(§6) Reaction stopping solution: an appropriate amount of internal standard compound phenacetin was dissolved in acetonitrile to prepare a reaction stopping solution with a concentration of 1000 ng/mL for use at room temperature.
(§7) The test compound stock solution was diluted with an organic solvent (usually a mixture of acetonitrile, methanol and water with various ratios, depending on the solubility of the compound, if necessary, 1 N hydrochloric acid or 1 N sodium hydroxide would be added to facilitate solubilization) to the 0.1 mM (the final concentration of the compound in the reaction system was 1 μM) and the concentration percentage of the organic solvents in the incubation system no more than 1% (wherein the percentage of DMSO was required to be no more than 0.1%). An appropriate amount of 100 mM NADP, 500 mM G-6-P and 100 Unit/mL G-6-PDH were mixed and diluted with ultrapure water (the final system contains 1 mM NADP, 5 mM G-6-P and 1 Unit/mL G-6-PDH), pre-incubated in a 37° C. water bath for 10 minutes and then placed on ice for use as a NADPH regeneration solution. 20 mg/mL liver microsomes solution and 200 mM phosphate buffer was mixed, and diluted with ultrapure water to give a liver microsomes solution containing 2.5 mg/mL liver microsomes (the final concentration of the reaction system is 0.5 mg/mL) and 50 mM phosphate buffer. The diluted liver microsomes solution was mixed with 0.1 mM compound solution, a mixture of 100 mM EDTA, 300 mM MgCl2 solution, 200 mM phosphate buffer (the final system was 3 mM MgCl2, 1 mM EDTA and 50 mM phosphate buffer) and water in an appropriate volume was added. Finally, the NADPH regeneration solution was added, then the reaction solution was placed in a 37° C. water bath to start the reaction (the reaction time was 30 minutes), and the reaction was stopped by adding the ice-cold acetonitrile reaction stopping solution containing the internal standard. The 0-minute sample was not incubated in a 37° C. water bath, and its difference from the 30-minute sample further lies in that the ice-cold acetonitrile reaction stopping solution containing the internal standard was added first, and then the NADPH regeneration solution was added. The sample added with the reaction stopping internal standard solution was vortexed and mixed well, and then centrifuged at 4400 rpm for 10 minutes. The supernatant was taken and diluted ten times with 50% methanol for LC-MS/MS analysis.
(§8) LC-MS/MS was used to determine the concentration of the compound in the sample. The percentage of the remaining compound after 30 minutes of incubation comparing with that in the 0-minute sample was calculated using the peak area ratio of the compound to the internal standard as an indicator, to evaluate the metabolic stability of the compound.
(§9) Instrument: API4500, API4000 or LTQ Mass Spectrometer; the liquid phase is UHPLC system (Shimadzu LC-30 AD, model Nexra X2) including liquid delivery unit, column thermostat, detector and autosampler; or Agilent 1200 Binary Pump series HPLC and CTC Autosampler.
(§10) Chromatographic column: Waters XSELECT Hss T3 C18 (2.5 μm, 2.1×50 mm) or […] (5 μm, 2.0×50 mm)
(§11) Mobile phase: • A: water with 0.1% FA (formic acid) (with or without 0.1% ACN (acetonitrile)) • B: acetonitrile with 0.1% FA (formic acid).
A general note: Liver microsomes are a subcellular fraction often used to study metabolism.

Data set [3] can be described thus: Stability test in liver microsomes (mouse). The following applies: 1 μM compound; for stability in mouse liver microsomes compared with reference GDC-0853: 0.5 mg/mL liver microsomes, 30 minutes incubation; for MLM, percentage of remaining compound after 30 minutes of incubation: mouse liver microsomes. The format is in vitro ADME.
Source text: as §2, §3, §4, §5, §6, §7, §8, §9, §10, §11

Chain of BTK recombinant protein (Q06187 whole entry): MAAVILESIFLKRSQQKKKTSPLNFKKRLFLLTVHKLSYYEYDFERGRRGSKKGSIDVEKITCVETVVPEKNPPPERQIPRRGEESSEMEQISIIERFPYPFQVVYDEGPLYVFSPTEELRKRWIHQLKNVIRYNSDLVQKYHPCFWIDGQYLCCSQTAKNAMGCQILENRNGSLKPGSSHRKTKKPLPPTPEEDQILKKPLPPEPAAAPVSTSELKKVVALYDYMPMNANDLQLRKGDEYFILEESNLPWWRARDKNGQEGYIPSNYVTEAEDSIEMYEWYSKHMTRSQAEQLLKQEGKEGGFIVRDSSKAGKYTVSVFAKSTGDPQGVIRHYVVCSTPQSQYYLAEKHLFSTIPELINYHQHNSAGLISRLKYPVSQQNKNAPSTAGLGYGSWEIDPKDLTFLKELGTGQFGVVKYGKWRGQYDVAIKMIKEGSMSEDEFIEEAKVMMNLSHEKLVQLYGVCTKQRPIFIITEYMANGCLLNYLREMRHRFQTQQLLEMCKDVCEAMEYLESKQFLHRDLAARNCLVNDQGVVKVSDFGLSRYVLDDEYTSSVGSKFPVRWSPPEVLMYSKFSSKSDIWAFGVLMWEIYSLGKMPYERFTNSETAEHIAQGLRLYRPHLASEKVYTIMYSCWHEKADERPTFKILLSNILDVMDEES
Chain of phosphorylated BTK in Ramos cells (Q06187 whole entry): as above

Turning to `Cn1cc(-c2ccnc(-n3ccn4c5c(cc4c3=O)CC(C)(C)C5)c2CO)cc(Nc2ccc(N3CCN4CCOCC4C3)cn2)c1=O` (racemic) [Compound 232], the figures for the 50% inhibitory concentration (IC50) (in data set [1]; on BTK recombinant protein) were 8 nM and 12 nM, respectively.
For “2-(3′-(hydroxymethyl)-5-((5-(2-methoxyethyl)-4-methyl-4,5,6,7-tetrahydropyrazolo[1,5-α]pyrazin-2-yl)amido)-1-methyl-6-oxo-1,6-dihydro-[3,4′-bispyridin]-2′-yl)-7,7-dimethyl-7,8-dihydro-2H-cyclopenta[4,5]pyrrolo[1,2-d][1,2,4]triazin-1(6H)-one optically pure enantiomer [Compound 120]” the same measures were 5 nM and 8 nM.
With `C[C@H]1CN(C2COC2)CCN1c1ccc(Nc2nc(-c3ccnc(-n4ccn5c6c(cc5c4=O)CC(C)(C)C6)c3CO)cn(C)c2=O)nc1` [Compound 20], on BTK recombinant protein, the IC50 – broadly, the concentration that inhibits the measured activity by half – is 27 nM.
Turning to `CCn1cc(Nc2cc(-c3ccnc(-n4ccn5c6c(cc5c4=O)CC(C)(C)C6)c3CO)nn(C)c2=O)nn1` [Compound 25], on BTK recombinant protein, the concentration for half-maximal inhibition (IC50) was 8 nM.
Turning to `Cn1cc(-c2ccnc(-n3ccn4c5c(cc4c3=O)CC(C)(C)C5)c2CO)cc(Nc2ccc(N3CCN(C4COC4)CC3=O)cn2)c1=O` [Compound 34], the IC50 on BTK recombinant protein worked out at 5 nM. In data set [2], the “stability in rat liver microsomes compared with reference GDC-0853” value is reported as “better than that of the reference GDC-0853” and the “RLM, percentage of remaining compound after 30 minutes of incubation” value is on record as roughly 100%. In data set [3], the “stability in mouse liver microsomes compared with reference GDC-0853” value is reported as “better than that of the reference GDC-0853” and the “MLM, percentage of remaining compound after 30 minutes of incubation” value amounted to 89.5%.
Take `COCC(C)n1cc(Nc2nc(-c3ccnc(-n4ccn5c6c(cc5c4=O)CC(C)(C)C6)c3CO)cn(C)c2=O)nn1` (stereo not drawn) [Compound 42]: the IC50 at BTK recombinant protein turned out to be 269 nM.
Take `CCn1cc(Nc2cc(-c3ccnc(-n4ccn5c6c(cc5c4=O)CC(C)(C)C6)c3CO)cn(C)c2=O)nn1` [Compound 24]: the IC50 on BTK recombinant protein came out at 3 nM.
As for `C[C@H]1CN(C2COC2)CCN1c1ccc(Nc2cc(-c3ccnc(-n4ccn5c6c(cc5c4=O)CC(C)(C)C6)c3CO)nn(C)c2=O)nc1` [Compound 22], the half-maximal inhibitory concentration (IC50) on BTK recombinant protein was 10 nM. In data set [2], the “stability in rat liver microsomes compared with reference GDC-0853” value is reported as “better than that of the reference GDC-0853” and the “RLM, percentage of remaining compound after 30 minutes of incubation” value stood at 95.6%. In data set [3], the “stability in mouse liver microsomes compared with reference GDC-0853” value is given as “better than that of the reference GDC-0853” and the “MLM, percentage of remaining compound after 30 minutes of incubation” value amounted to 83.4%.
